Results: US8455688B2, “HDAC inhibitors” (Lixte Biotechnology, Inc., priority 2007, dated 2013)
Values after ≈ are worked out from the molar mass of the structure shown. Where two headings read alike, the source gives them in different places. Blank lines part the entries; values can stand above or below the compound they belong to.

How the values were obtained:
T. rubrum = test: Broth dilution antifungal susceptibility testing, T. rubrum; format: cell-based, Trichophyton rubrum; settings: Trichophyton rubrum, 80% inhibition, read-out: minimum inhibitory concentration (MIC)
Description: (§1) A total of 23 isolates were tested to include 3 Candida albicans, 3 Candida glabrata, 3 Cryptococcus neoformans, 3 Aspergillus fumigatus, 3 Rhizopus oryzae, 3, Fusarium solani, 3 Pseudallescheria boydii, and 2 […]. All isolates were clinical isolates submitted to the Fungus Testing Laboratory for evaluation. Antifungal susceptibility testing was accomplished according to the methods outlined in the National Committee for Clinical Laboratory Standards, M-27A2, Reference Method for Broth Dilution Antifungal Susceptibility Testing of Yeasts; Approved Standard, and M38-A “Reference Method for Broth Dilution Antifungal Susceptibility Testing of Conidium-Forming Filamentous Fungi; Approved Standard”. This includes testing in RPMI-1640 with glutamine and without bicarbonate, an inoculum size of 0.5-2.5×10^3 for yeasts or […] for moulds, and incubation at 35° C. for 24 and 48 hours. […] Drug concentrations were 0.125-64 μg/ml. A 10 mg portion of each powder was weighed out and added to 1 ml of 100% DMSO for compound 205. The resulting concentration of […] was diluted to a working concentration of 6400 μg/ml for compound 205 in 100% DMSO. All subsequent dilutions were also made using the respective diluents. Final testing concentrations ranged from 0.125-64 μg/ml. The NCCLS recommended medium RPMI-1640 (Hardy Diagnostics, Santa Monica, Calif.) was utilized as the test medium. All isolates in this study were clinical isolates received in the Fungus Testing Laboratory for standard antifungal susceptibility testing and/or identification. Isolates, which were not sent for identification, were confirmed to assure testing integrity. A total of 23 were tested to include 3 Candida albicans, 3 Candida glabrata, 3 Cryptococcus neoformans, 3 Aspergillus fumigatus, 3 Rhizopus oryzae, 3, Fusarium solani, 3 Pseudallescheria boydii, and 2 […]. Minimum inhibitory concentrations (MIC) were determined at the first 24-hour interval where growth could be determined in the drug-free control tube.

A. fumigatus = test: Broth dilution antifungal susceptibility testing, A. fumigatus; format: cell-based, Aspergillus fumigatus; settings: Aspergillus fumigatus, 80% inhibition, read-out: minimum inhibitory concentration (MIC)
Description: as §1

S. apiospermum = test: Broth dilution antifungal susceptibility testing, S. apiospermum; format: cell-based, Pseudallescheria boydii; settings: Scedosporium apiospermum, 80% inhibition, read-out: minimum inhibitory concentration (MIC)
Description: as §1

C. glabrata = test: Broth dilution antifungal susceptibility testing, C. glabrata; format: cell-based, Candida glabrata; settings: Nakaseomyces glabratus, 50% reduction in turbidity, read-out: minimum inhibitory concentration (MIC)
Description: as §1

C. neoformans = test: Broth dilution antifungal susceptibility testing, C. neoformans; format: cell-based; settings: Cryptococcus neoformans, 50% reduction in turbidity, read-out: minimum inhibitory concentration (MIC)
Description: as §1

C. albicans = test: Broth dilution antifungal susceptibility testing, C. albicans; format: cell-based, Candida albicans; settings: Candida albicans, 50% reduction in turbidity, read-out: minimum inhibitory concentration (MIC)
Description: as §1

R. arrhizus = test: Broth dilution antifungal susceptibility testing, R. arrhizus; format: cell-based, Rhizopus oryzae; settings: Rhizopus arrhizus, 80% inhibition, read-out: minimum inhibitory concentration (MIC)
Description: as §1

F. solani = test: Broth dilution antifungal susceptibility testing, F. solani; format: cell-based; settings: Fusarium solani, 80% inhibition, read-out: minimum inhibitory concentration (MIC)
Description: as §1

[1] = 24 h, isolate 07-1743, 24 hours
[2] = 24 h, isolate 07-2055, 24 hours
[3] = 48 h, isolate 07-1743, 48 hours
[4] = 48 h, isolate 07-2055, 48 hours
[5] = 24 h, isolate 06-4126, 24 hours
[6] = 24 h, isolate 07-2039, 24 hours
[7] = 48 h, isolate 06-4126, 48 hours
[8] = 48 h, isolate 07-2039, 48 hours
[9] = 24 h, isolate 07-1333, 24 hours
[10] = 24 h, isolate 07-1502, 24 hours
[11] = 24 h, isolate 07-1601, 24 hours
[12] = 48 h, isolate 07-1333, 48 hours
[13] = 48 h, isolate 07-1502, 48 hours
[14] = 48 h, isolate 07-1601, 48 hours
[15] = 24 h, isolate 07-2964, 24 hours
[16] = 24 h, isolate 07-2965, 24 hours
[17] = 24 h, isolate 07-3013, 24 hours
[18] = 48 h, isolate 07-2964, 48 hours
[19] = 48 h, isolate 07-2965, 48 hours
[20] = 48 h, isolate 07-3013, 48 hours
[21] = 24 h, isolate 07-2665, 24 hours
[22] = 24 h, isolate 07-2737, 24 hours
[23] = 24 h, isolate 07-2829, 24 hours
[24] = 48 h, isolate 07-2665, 48 hours
[25] = 48 h, isolate 07-2737, 48 hours
[26] = 48 h, isolate 07-2829, 48 hours
[27] = 24 h, isolate 07-3006, 24 hours
[28] = 24 h, isolate 07-3011, 24 hours
[29] = 24 h, isolate 07-3012, 24 hours
[30] = 48 h, isolate 07-3006, 48 hours
[31] = 48 h, isolate 07-3011, 48 hours
[32] = 48 h, isolate 07-3012, 48 hours
[33] = 24 h, isolate 07-1870, 24 hours
[34] = 24 h, isolate 07-2044, 24 hours
[35] = 24 h, isolate 07-2078, 24 hours
[36] = 48 h, isolate 07-1870, 48 hours
[37] = 48 h, isolate 07-2044, 48 hours
[38] = 48 h, isolate 07-2078, 48 hours
[39] = 24 h, isolate 07-1399, 24 hours
[40] = 24 h, isolate 07-1755, 24 hours
[41] = 24 h, isolate 07-1867, 24 hours
[42] = 48 h, isolate 07-1399, 48 hours
[43] = 48 h, isolate 07-1755, 48 hours
[44] = 48 h, isolate 07-1867, 48 hours

MIC (T. rubrum; [1]): ≤ 0.125 µg/mL
MIC (T. rubrum; [2]): ≤ 0.125 µg/mL
MIC (T. rubrum; [3]): ≤ 0.125 µg/mL
MIC (T. rubrum; [4]): ≤ 0.125 µg/mL
MIC (A. fumigatus; 24 h, isolate 05-388, 24 hours): 2 µg/mL (≈ 5.37 µM)
MIC (A. fumigatus; [5]): 2 µg/mL (≈ 5.37 µM)
MIC (A. fumigatus; [6]): 2 µg/mL (≈ 5.37 µM)
MIC (A. fumigatus; 48 h, isolate 05-388, 48 hours): > 64 µg/mL
MIC (A. fumigatus; [7]): > 64 µg/mL
MIC (A. fumigatus; [8]): > 64 µg/mL
MIC (S. apiospermum; [9]): 2 µg/mL (≈ 5.37 µM)
MIC (S. apiospermum; [10]): 2 µg/mL (≈ 5.37 µM)
MIC (S. apiospermum; [11]): 2 µg/mL (≈ 5.37 µM)
MIC (S. apiospermum; [12]): 4 µg/mL (≈ 10.7 µM)
MIC (S. apiospermum; [13]): 4 µg/mL (≈ 10.7 µM)
MIC (S. apiospermum; [14]): 4 µg/mL (≈ 10.7 µM)
MIC (C. glabrata; [15]): > 64 µg/mL
MIC (C. glabrata; [16]): > 64 µg/mL
MIC (C. glabrata; [17]): > 64 µg/mL
MIC (C. glabrata; [18]): > 64 µg/mL
MIC (C. glabrata; [19]): > 64 µg/mL
MIC (C. glabrata; [20]): > 64 µg/mL
MIC (C. neoformans; [21]): 8 µg/mL (≈ 21.5 µM)
MIC (C. neoformans; [22]): 8 µg/mL (≈ 21.5 µM)
MIC (C. neoformans; [23]): 8 µg/mL (≈ 21.5 µM)
MIC (C. neoformans; [24]): 16 µg/mL (≈ 43 µM)
MIC (C. neoformans; [25]): 16 µg/mL (≈ 43 µM)
MIC (C. neoformans; [26]): 16 µg/mL (≈ 43 µM)
MIC (C. albicans; [27]): > 64 µg/mL
MIC (C. albicans; [28]): > 64 µg/mL
MIC (C. albicans; [29]): > 64 µg/mL
MIC (C. albicans; [30]): > 64 µg/mL
MIC (C. albicans; [31]): > 64 µg/mL
MIC (C. albicans; [32]): > 64 µg/mL
MIC (R. arrhizus; [33]): 4 µg/mL (≈ 10.7 µM)
MIC (R. arrhizus; [34]): 4 µg/mL (≈ 10.7 µM)
MIC (R. arrhizus; [35]): 8 µg/mL (≈ 21.5 µM)
MIC (R. arrhizus; [36]): > 64 µg/mL
MIC (R. arrhizus; [37]): > 64 µg/mL
MIC (R. arrhizus; [38]): > 64 µg/mL
MIC (F. solani; [39]): 4 µg/mL (≈ 10.7 µM)
MIC (F. solani; [40]): 4 µg/mL (≈ 10.7 µM)
MIC (F. solani; [41]): 2 µg/mL (≈ 5.37 µM)
MIC (F. solani; [42]): 8 µg/mL (≈ 21.5 µM)
MIC (F. solani; [43]): 8 µg/mL (≈ 21.5 µM)
MIC (F. solani; [44]): 8 µg/mL (≈ 21.5 µM)
SMILES: COc1ccc(S)c(C(=O)NCCCCCC(=O)Nc2ccccc2)c1 [Compound 211]

MIC (T. rubrum; [1]): 0.25 µg/mL (≈ 0.663 µM)
MIC (T. rubrum; [2]): 0.25 µg/mL (≈ 0.663 µM)
MIC (T. rubrum; [3]): 0.5 µg/mL (≈ 1.33 µM)
MIC (T. rubrum; [4]): 0.5 µg/mL (≈ 1.33 µM)
MIC (A. fumigatus; 24 h, isolate 05-388, 24 hours): 2 µg/mL (≈ 5.31 µM)
MIC (A. fumigatus; [5]): 2 µg/mL (≈ 5.31 µM)
MIC (A. fumigatus; [6]): 2 µg/mL (≈ 5.31 µM)
MIC (A. fumigatus; 48 h, isolate 05-388, 48 hours): > 64 µg/mL
MIC (A. fumigatus; [7]): > 64 µg/mL
MIC (A. fumigatus; [8]): > 64 µg/mL
MIC (S. apiospermum; [9]): 1 µg/mL (≈ 2.65 µM)
MIC (S. apiospermum; [10]): 1 µg/mL (≈ 2.65 µM)
MIC (S. apiospermum; [11]): 1 µg/mL (≈ 2.65 µM)
MIC (S. apiospermum; [12]): > 64 µg/mL
MIC (S. apiospermum; [13]): > 64 µg/mL
MIC (S. apiospermum; [14]): > 64 µg/mL
MIC (C. glabrata; [15]): > 64 µg/mL
MIC (C. glabrata; [16]): > 64 µg/mL
MIC (C. glabrata; [17]): > 64 µg/mL
MIC (C. glabrata; [18]): > 64 µg/mL
MIC (C. glabrata; [19]): > 64 µg/mL
MIC (C. glabrata; [20]): > 64 µg/mL
MIC (C. neoformans; [21]): > 64 µg/mL
MIC (C. neoformans; [22]): > 64 µg/mL
MIC (C. neoformans; [23]): > 64 µg/mL
MIC (C. neoformans; [24]): > 64 µg/mL
MIC (C. neoformans; [25]): > 64 µg/mL
MIC (C. neoformans; [26]): > 64 µg/mL
MIC (C. albicans; [27]): > 64 µg/mL
MIC (C. albicans; [28]): > 64 µg/mL
MIC (C. albicans; [29]): > 64 µg/mL
MIC (C. albicans; [30]): > 64 µg/mL
MIC (C. albicans; [31]): > 64 µg/mL
MIC (C. albicans; [32]): > 64 µg/mL
MIC (R. arrhizus; [33]): 4 µg/mL (≈ 10.6 µM)
MIC (R. arrhizus; [34]): 4 µg/mL (≈ 10.6 µM)
MIC (R. arrhizus; [35]): > 64 µg/mL
MIC (R. arrhizus; [36]): > 64 µg/mL
MIC (R. arrhizus; [37]): > 64 µg/mL
MIC (R. arrhizus; [38]): > 64 µg/mL
MIC (F. solani; [39]): 1 µg/mL (≈ 2.65 µM)
MIC (F. solani; [40]): 1 µg/mL (≈ 2.65 µM)
MIC (F. solani; [41]): 2 µg/mL (≈ 5.31 µM)
MIC (F. solani; [42]): > 64 µg/mL
MIC (F. solani; [43]): > 64 µg/mL
MIC (F. solani; [44]): > 64 µg/mL
SMILES: O=C(CCCCCNC(=O)c1cc(Cl)ccc1S)Nc1ccccc1 [Compound 210]
